According to US10874643B2 (priority 2015, dated 2020):

What was measured:
[1] = test system: WT zebrafish exposed to 15 mM pentylenetetrazole; experiment: PTZ-induced seizure behavior in wild-type larvae (locomotion); assay type: in vivo; conditions: 100 μM; 15 mM PTZ; n=10
scn1Lab mutants [2] = assay type: in vivo, zebrafish
5-HT1B(h) = molecular target: T1, 5-HT1B(h) (Homo sapiens, UniProt P28222); experiment: CEREP BioPrint binding; conditions: 1.0E-05M; agonist radioligand
T1 construct: CEREP (contract assay panel)
T1 sequence (P28222 whole entry): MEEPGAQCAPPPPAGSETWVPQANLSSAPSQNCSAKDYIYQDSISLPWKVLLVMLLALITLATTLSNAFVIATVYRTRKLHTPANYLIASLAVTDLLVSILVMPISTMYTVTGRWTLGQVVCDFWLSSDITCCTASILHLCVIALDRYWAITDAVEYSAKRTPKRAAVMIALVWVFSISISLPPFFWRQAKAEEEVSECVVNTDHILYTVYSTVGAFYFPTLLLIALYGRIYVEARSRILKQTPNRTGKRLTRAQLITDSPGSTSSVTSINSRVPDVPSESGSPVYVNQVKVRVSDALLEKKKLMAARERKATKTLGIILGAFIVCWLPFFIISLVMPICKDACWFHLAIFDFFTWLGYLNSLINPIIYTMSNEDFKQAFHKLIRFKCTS
Protocol: (§1) Clemizole (149934-L6) was tested in the CEREP BioPrint Profile, which is apanel of 139 different in vitro receptor binding and enzyme assays. For the initial BioPrint screen, afree compound concentration of 10 μM (LOE-5 M) was used. Compound binding was calculated as a % inhibition of the binding of aradioactively labeled ligand specific for each target. Compound enzyme inhibition effect was calculated as a % inhibition of control enzyme activity. In each experiment, the respective reference compound was tested concurrently with Clemizole (149934-L6), and the data were compared with historical values determined at CEREP. The experiment was accepted in accordance with CEREP's validation Standard Operating Procedure. Results showing an inhibition (or stimulation for assays run in basal conditions) higher than 50% are considered to represent significant effects of the test compounds.

5-HT2B(h) = molecular target: T2, 5-HT2B(h) (Homo sapiens, UniProt P41595); experiment: CEREP BioPrint binding; conditions: 1.0E-05M; agonist radioligand
T2 construct: CEREP (contract assay panel)
T2 sequence (P41595 whole entry): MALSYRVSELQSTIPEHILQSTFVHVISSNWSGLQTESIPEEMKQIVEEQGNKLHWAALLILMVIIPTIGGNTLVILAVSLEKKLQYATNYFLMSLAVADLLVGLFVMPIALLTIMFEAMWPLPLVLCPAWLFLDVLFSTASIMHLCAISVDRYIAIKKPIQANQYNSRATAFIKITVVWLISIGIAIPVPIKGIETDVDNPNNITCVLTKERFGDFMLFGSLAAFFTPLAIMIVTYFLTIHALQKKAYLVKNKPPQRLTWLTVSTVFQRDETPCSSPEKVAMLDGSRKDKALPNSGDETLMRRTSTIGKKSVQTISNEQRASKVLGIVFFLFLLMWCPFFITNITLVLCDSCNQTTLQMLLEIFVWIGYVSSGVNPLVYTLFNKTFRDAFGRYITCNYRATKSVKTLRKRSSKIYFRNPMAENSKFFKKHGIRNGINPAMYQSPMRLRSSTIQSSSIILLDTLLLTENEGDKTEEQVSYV
Protocol: as §1

SK-Ca channel = experiment: CEREP BioPrint binding; conditions: 1.0E-05M
Protocol: as §1

5-HT4e(h) = molecular target: T3, 5-HT4e(h) (Homo sapiens, UniProt Q13639); experiment: CEREP BioPrint binding; conditions: 1.0E-05M; agonist radioligand
T3 construct: CEREP (contract assay panel)
T3 sequence (Q13639 1-378 isoform Q13639-5): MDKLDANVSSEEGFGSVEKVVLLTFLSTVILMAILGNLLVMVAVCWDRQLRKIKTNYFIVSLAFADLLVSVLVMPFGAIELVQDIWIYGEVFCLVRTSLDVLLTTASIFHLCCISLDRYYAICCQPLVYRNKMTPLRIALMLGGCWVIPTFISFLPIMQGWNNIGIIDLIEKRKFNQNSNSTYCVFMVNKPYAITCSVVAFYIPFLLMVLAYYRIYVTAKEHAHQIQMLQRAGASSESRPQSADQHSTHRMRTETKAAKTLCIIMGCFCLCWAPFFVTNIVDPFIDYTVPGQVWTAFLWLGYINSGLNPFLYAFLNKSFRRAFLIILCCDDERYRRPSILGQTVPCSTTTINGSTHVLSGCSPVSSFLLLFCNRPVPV
Protocol: as §1

GABA-gated Cl channel = experiment: CEREP BioPrint binding; conditions: 1.0E-05M
Protocol: as §1

BZD (central) = experiment: CEREP BioPrint binding; conditions: 1.0E-05M; agonist radioligand
Protocol: as §1

5-HT1D(h) = molecular target: T4, 5-HT1D(h) (Homo sapiens, UniProt P28221); experiment: CEREP BioPrint binding; conditions: 1.0E-05M; agonist radioligand
T4 construct: CEREP (contract assay panel)
T4 sequence (P28221 whole entry): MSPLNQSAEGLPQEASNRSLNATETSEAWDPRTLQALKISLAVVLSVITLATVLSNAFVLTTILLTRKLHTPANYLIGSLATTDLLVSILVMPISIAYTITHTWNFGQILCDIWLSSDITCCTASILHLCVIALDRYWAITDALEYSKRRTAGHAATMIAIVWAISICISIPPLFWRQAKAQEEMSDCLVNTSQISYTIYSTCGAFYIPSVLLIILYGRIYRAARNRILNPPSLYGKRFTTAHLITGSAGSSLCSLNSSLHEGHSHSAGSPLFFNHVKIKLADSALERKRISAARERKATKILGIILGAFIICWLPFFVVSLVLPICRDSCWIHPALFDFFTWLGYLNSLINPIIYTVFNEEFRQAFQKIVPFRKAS
Protocol: as §1

5-HT1A(h) = molecular target: T5, 5-HT1A(h) (Homo sapiens, UniProt P08908); experiment: CEREP BioPrint binding; conditions: 1.0E-05M; agonist radioligand
T5 construct: CEREP (contract assay panel)
T5 sequence (P08908 1-422): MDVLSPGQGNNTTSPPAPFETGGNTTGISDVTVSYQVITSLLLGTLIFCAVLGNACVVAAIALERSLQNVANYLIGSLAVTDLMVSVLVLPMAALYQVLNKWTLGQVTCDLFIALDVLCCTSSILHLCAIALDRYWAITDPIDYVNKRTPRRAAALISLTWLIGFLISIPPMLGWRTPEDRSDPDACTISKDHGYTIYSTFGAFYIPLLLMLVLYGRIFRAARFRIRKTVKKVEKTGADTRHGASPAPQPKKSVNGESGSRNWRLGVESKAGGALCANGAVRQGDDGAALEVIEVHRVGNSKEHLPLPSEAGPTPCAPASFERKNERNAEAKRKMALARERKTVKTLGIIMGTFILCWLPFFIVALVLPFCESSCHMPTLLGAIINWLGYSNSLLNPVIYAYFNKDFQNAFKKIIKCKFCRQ
Protocol: as §1

GABAB(1b)(h) = molecular target: T6, GABAB(1b)(h) (Homo sapiens, UniProt Q9UBS5); experiment: CEREP BioPrint binding; conditions: 1.0E-05M; agonist radioligand
T6 construct: CEREP (contract assay panel)
T6 sequence (Q9UBS5 1-844 isoform Q9UBS5-2): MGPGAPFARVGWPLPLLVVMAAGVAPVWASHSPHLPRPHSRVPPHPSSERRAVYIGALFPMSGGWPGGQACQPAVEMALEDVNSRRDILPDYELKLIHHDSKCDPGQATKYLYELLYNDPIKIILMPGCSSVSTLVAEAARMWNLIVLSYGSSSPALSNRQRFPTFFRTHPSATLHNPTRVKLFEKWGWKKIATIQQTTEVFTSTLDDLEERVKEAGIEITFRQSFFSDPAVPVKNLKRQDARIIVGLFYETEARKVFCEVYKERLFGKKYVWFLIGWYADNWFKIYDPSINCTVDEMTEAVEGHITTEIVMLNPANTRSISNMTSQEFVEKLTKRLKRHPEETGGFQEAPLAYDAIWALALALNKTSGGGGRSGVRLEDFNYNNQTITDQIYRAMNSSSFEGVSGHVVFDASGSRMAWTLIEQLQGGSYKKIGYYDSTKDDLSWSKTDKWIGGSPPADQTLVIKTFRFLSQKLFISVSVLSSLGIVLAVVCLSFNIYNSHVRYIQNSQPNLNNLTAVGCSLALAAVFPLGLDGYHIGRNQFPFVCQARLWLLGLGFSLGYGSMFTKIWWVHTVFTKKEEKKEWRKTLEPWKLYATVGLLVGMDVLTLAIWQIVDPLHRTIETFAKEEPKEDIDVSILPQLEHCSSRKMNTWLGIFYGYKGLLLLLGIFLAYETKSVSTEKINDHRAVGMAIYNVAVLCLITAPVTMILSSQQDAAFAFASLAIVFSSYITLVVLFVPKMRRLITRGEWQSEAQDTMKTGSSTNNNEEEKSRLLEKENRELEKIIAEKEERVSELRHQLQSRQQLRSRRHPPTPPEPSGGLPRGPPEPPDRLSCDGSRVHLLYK
Protocol: as §1

GABA transporter = experiment: CEREP BioPrint binding; conditions: 1.0E-05M
Protocol: as §1

GABAA1(h) = molecular target: T7, GABAA1(h) (Homo sapiens, UniProt P14867+P47870); experiment: CEREP BioPrint binding; conditions: 1.0E-05M; agonist radioligand
T7 construct: CEREP (contract assay panel)
T7 sequence (P14867 28-456): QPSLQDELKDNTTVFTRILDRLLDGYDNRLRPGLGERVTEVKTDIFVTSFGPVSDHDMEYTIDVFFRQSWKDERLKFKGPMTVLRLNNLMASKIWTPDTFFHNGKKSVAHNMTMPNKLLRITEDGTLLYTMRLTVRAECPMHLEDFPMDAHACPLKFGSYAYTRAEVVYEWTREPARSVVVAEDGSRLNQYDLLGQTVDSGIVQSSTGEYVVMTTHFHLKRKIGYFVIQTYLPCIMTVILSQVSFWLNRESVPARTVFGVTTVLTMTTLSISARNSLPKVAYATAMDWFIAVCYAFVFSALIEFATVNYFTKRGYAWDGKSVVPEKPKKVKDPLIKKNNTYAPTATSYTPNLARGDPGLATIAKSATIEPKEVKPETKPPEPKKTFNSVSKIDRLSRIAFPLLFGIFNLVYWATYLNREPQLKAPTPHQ
T7 sequence (P47870 25-512 limits assumed): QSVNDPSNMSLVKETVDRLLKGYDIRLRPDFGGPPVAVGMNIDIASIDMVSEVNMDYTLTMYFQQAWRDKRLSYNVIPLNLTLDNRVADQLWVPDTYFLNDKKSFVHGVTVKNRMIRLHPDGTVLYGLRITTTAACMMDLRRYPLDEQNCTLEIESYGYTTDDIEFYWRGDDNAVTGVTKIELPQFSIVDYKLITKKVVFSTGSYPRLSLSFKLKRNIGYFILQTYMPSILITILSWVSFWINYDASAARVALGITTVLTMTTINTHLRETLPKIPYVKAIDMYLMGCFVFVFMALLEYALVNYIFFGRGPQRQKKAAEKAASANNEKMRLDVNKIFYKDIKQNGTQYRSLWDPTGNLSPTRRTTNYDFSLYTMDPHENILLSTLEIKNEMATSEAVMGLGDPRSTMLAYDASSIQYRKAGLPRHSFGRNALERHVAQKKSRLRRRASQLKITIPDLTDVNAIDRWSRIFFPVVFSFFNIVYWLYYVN
T7 sequence (P18507 40-467 partner limits assumed): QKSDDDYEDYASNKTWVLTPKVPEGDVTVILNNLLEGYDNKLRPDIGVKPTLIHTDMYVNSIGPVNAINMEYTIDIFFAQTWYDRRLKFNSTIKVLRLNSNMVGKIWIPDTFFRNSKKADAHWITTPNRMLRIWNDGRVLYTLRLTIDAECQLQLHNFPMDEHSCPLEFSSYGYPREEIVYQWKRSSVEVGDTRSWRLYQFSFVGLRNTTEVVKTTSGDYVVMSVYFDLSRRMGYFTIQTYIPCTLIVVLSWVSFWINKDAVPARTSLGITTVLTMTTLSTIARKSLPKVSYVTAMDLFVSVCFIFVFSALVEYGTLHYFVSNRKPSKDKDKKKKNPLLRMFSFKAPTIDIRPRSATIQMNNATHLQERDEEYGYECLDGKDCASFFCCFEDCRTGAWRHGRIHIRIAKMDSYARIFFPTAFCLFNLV
Protocol: as §1

CB2(h) = molecular target: T8, CB2(h) (Homo sapiens, UniProt P34972); experiment: CEREP BioPrint binding; conditions: 1.0E-05M; agonist radioligand
T8 construct: CEREP (contract assay panel)
T8 sequence (P34972 whole entry): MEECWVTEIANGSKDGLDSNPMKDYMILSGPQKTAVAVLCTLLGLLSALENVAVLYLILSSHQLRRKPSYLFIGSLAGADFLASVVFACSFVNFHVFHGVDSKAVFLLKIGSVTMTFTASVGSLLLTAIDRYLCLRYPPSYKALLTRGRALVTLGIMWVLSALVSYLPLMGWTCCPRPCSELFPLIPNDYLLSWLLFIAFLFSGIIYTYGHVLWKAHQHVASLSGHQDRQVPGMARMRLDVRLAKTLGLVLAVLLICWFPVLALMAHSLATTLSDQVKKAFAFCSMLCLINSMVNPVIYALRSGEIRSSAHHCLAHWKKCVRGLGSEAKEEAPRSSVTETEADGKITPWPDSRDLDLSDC
Protocol: as §1

CB1(h) = molecular target: T9, CB1(h) (Homo sapiens, UniProt P21554); experiment: CEREP BioPrint binding; conditions: 1.0E-05M; agonist radioligand
T9 construct: CEREP (contract assay panel)
T9 sequence (P21554 whole entry): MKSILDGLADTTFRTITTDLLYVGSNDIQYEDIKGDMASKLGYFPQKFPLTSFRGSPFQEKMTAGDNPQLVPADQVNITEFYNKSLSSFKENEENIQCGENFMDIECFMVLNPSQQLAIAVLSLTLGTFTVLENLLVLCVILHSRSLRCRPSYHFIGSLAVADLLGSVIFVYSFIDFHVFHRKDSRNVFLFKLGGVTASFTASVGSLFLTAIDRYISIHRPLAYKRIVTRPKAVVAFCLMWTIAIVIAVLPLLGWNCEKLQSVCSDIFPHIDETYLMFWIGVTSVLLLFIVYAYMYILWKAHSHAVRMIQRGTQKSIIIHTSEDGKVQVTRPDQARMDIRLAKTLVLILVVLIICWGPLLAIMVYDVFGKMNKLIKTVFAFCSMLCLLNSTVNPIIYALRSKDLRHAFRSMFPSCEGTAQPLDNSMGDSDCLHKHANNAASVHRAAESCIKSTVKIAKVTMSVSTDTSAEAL
Protocol: as §1

5-HT2A(h) = molecular target: T10, 5-HT2A(h) (Homo sapiens, UniProt P28223); experiment: CEREP BioPrint binding; conditions: 1.0E-05M; agonist radioligand
T10 construct: CEREP (contract assay panel)
T10 sequence (P28223 whole entry): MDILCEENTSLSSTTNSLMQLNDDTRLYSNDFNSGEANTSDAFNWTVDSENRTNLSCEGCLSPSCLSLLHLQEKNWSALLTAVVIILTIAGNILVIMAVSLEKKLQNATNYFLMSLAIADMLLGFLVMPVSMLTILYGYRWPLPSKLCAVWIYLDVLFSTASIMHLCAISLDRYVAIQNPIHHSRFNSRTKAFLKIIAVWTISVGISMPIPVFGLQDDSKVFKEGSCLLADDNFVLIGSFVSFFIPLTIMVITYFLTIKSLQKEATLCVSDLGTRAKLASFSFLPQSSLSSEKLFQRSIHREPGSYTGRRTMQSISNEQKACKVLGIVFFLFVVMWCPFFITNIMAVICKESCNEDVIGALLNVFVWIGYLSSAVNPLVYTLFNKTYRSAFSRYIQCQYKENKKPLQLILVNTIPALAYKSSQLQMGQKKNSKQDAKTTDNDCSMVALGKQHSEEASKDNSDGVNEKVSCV
Protocol: as §1

5-HT3(h) = molecular target: T11, 5-HT3(h) (Homo sapiens, UniProt P46098); experiment: CEREP BioPrint binding; conditions: 1.0E-05M; agonist radioligand
T11 construct: CEREP (contract assay panel)
T11 sequence (P46098 24-478): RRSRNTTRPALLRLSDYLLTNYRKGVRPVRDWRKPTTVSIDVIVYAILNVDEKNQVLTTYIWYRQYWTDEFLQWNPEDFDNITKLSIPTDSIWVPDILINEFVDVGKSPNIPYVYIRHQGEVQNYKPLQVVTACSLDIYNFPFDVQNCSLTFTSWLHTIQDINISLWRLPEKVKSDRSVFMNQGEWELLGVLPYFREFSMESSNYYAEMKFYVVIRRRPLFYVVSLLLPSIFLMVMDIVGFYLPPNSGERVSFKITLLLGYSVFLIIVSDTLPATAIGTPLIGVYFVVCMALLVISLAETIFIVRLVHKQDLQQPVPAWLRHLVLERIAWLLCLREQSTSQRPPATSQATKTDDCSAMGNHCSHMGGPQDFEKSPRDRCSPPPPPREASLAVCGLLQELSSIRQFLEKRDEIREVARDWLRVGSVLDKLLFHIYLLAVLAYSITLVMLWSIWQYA
Protocol: as §1

scn1Lab mutants [3] = experiment: Locomotion tracking assay of seizure behavior (96-well format)

SMILES: Clc1ccc(Cn2c(CN3CCCC3)nc3ccccc32)cc1 [Clemizole]
- seizure behavior [1]: effective in reducing seizure behavior
- forebrain electrographic seizure activity in the same mutants after the locomotion assay (scn1Lab mutants [2]; 100 μM, mutant embedded in agar): effective in suppressing spontaneous seizure activity
- burst duration (scn1Lab mutants [2]; clemizole-treated mutants (100 μM), n=7, un-treated mutants 926±414): 154 ± 127 ms
- burst frequency (scn1Lab mutants [2]; mutants exposed to clemizole first in locomotion assay (100 μM), n=7, un-treated mutants 1.5±0.3): 0.2±0.01 bursts/min
- % inhibition of the binding of a radioactively labeled ligand, 5-HT1B(h) (5-HT1B(h)): 4.4%
- % inhibition of the binding of a radioactively labeled ligand, 5-HT2B(h) (5-HT2B(h)): 82.5%
- % inhibition of the binding of a radioactively labeled ligand, SK-Ca channel (SK-Ca channel): −0.2%
- % inhibition of the binding of a radioactively labeled ligand, 5-HT4e(h) (5-HT4e(h)): −1.0%
- % inhibition of the binding of a radioactively labeled ligand, GABA-gated Cl channel (GABA-gated Cl channel): 24.9%
- % inhibition of the binding of a radioactively labeled ligand, BZD (central) (BZD (central)): −19.6%
- % inhibition of the binding of a radioactively labeled ligand, 5-HT1D(h) (5-HT1D(h)): 22.7%
- % inhibition of the binding of a radioactively labeled ligand, 5-HT1A(h) (5-HT1A(h)): 19.5%
- % inhibition of the binding of a radioactively labeled ligand, GABAB(1b)(h) (GABAB(1b)(h)): −5.9%
- % inhibition of the binding of a radioactively labeled ligand, GABA transporter (GABA transporter): −5.9%
- % inhibition of the binding of a radioactively labeled ligand, GABAA1(h) (GABAA1(h)): −9.6%
- % inhibition of the binding of a radioactively labeled ligand, CB2(h) (CB2(h)): 28.4%
- % inhibition of the binding of a radioactively labeled ligand, CB1(h) (CB1(h)): 17.9%
- % inhibition of the binding of a radioactively labeled ligand, 5-HT2A(h) (5-HT2A(h)): 86%
- % inhibition of the binding of a radioactively labeled ligand, 5-HT3(h) (5-HT3(h)): 9.8%
- swim activity / seizure behavior, third evaluation (scn1Lab mutants [3]; 100 μM, 10 fish per trial): effective in suppressing spontaneous seizure activity
- seizure-induced swim activity and mean velocity, re-test on separate clutch (scn1Lab mutants [3]; 667, 67 and 6.7 μM): effective in reducing seizure-induced swim activity and mean velocity
- effect on seizure behavior (scn1Lab mutants [3]; concentrations between 6.25 and 50 μM, n=33): no significant effect
